For this assay, the target named is T1, human mAChR M4 (Homo sapiens, UniProt P08173).
T1 construct: expressed in transfected cells; host or cells: CHO-K1 (ATCC), stably expressing hM4 and Gqi5
T1 sequence (P08173 1-479): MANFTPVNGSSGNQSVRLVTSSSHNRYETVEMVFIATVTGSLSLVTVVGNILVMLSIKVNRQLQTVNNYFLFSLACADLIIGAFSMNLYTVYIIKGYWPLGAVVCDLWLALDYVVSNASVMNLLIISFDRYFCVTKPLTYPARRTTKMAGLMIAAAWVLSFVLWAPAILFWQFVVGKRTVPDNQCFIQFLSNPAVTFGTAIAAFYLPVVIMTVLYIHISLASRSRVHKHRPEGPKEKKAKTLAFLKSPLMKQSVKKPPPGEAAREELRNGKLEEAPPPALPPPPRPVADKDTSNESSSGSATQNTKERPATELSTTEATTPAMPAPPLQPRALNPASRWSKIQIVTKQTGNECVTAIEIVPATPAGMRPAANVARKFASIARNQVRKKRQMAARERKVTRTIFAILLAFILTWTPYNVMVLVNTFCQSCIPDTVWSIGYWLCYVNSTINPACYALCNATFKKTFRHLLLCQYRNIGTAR
Nature of the assay: mAChR M4 cell-based functional assay: calcium flux (Fluo-4, FDSS), positive allosteric modulator activity on the EC20 acetylcholine response, hM4-Gqi5 CHO-K1 cells. The note with it: for Emax at 30 µM: CHO-K1, human M4, % ACh maximum at 30 μM; for EC50: human M4, PAM activity on EC20 acetylcholine response, calcium flux, read-out: Human M4 EC50. The procedure, abridged:
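CHO-K1 cells stably expressing human M4 with chimeric Gqi5, loaded with Fluo-4 AM for 50 min at 37° C. Compounds (11-point, 1:3 dilutions) added first, then an acetylcholine EC20 at 144 s; calcium read on FDSS at 1 Hz. EC50 is the half-maximal increase above the EC20 baseline, four-parameter logistic fit.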
On the technique in general: Calcium assays in cells follow changes in intracellular calcium, usually with a dye or a luminescent sensor.

By Emax is commonly meant the maximal effect, on the per cent scale that the assay sets. Broadly, the EC50 is the concentration giving half of the maximal effect. Turning to `Clc1nc(N2CCc3ncc(N4CCCn5nccc54)cc3C2)c2cccnc2n1` [Compound 94, 2-chloro-4-[3-(6,7-dihydro-5H-pyrazolo[1,5-a]pyrimidin-4-yl)-7,8-dihydro-5H-1,6-naphthyridin-6-yl]pyrido[2,3-d]pyrimidine], the Emax at 30 µM is 88% and the 50% effective concentration (EC50) was found to be 130 nM.

As to `Cc1nc(N2CCc3ncc(-c4ccccc4C)cc3C2)c2cc(F)ccc2n1` [Compound 294, 6-fluoro-2-methyl-4-(3-(o-tolyl)-7,8-dihydro-1,6-naphthyridin-6(5H)-yl)quinazoline], the Emax at 30 µM stood at 68% and the concentration for a half-maximal effect (EC50) was determined as 1630 nM.

For the compound `Fc1ccc2nc(N3CCCC3)nc(N3CCc4ncc(C(F)(F)F)cc4C3)c2c1` [Compound 195, 6-fluoro-2-pyrrolidin-1-yl-4-[3-(trifluoromethyl)-7,8-dihydro-5H-1,6-naphthyridin-6-yl]quinazoline], the maximum response (Emax) at 30 µM was 95% and the EC50 was 730 nM.

As for `Cc1nc(N2CCc3ncc(C4CC4)cc3C2)c2cc(C(F)(F)F)ccc2n1` [Compound 165, 4-(3-cyclopropyl-7,8-dihydro-5H-1,6-naphthyridin-6-yl)-2-methyl-6-(trifluoromethyl)quinazoline], the Emax at 30 µM amounted to 77% and the EC50 came out at 1810 nM.

Consider `Cc1ccc2nc(NCC(C)(C)O)nc(N3CCc4ncc(C(F)(F)F)cc4C3)c2c1` [Compound 208, 2-methyl-1-[[6-methyl-4-[3-(trifluoromethyl)-7,8-dihydro-5H-1,6-naphthyridin-6-yl]quinazolin-2-yl]amino]propan-2-ol], for which the Emax at 30 µM turned out to be 76% and the EC50 amounted to 390 nM.

With `Fc1ccc2ncnc(N3CCc4ncc(N5CCCn6nc(C(F)(F)F)cc65)cc4C3)c2c1` [Compound 276, 6-fluoro-4-(3-(2-(trifluoromethyl)-6,7-dihydropyrazolo[1,5-a]pyrimidin-4(5H)-yl)-7,8-dihydro-1,6-naphthyridin-6(5H)-yl)quinazoline], the Emax at 30 µM came out at 96% and the EC50 was determined as 320 nM.

As to `Fc1ccc2nc(NC3CCOC3)nc(N3CCc4ncc(C(F)(F)F)cc4C3)c2c1` (stereo not shown) [Compound 202, 6-fluoro-N-tetrahydrofuran-3-yl-4-[3-(trifluoromethyl)-7,8-dihydro-5H-1,6-naphthyridin-6-yl]quinazolin-2-amine], the Emax at 30 µM was 92% and the EC50 was 300 nM.

Regarding `Fc1ccc2nc(C(F)(F)F)nc(N3CCc4ncc(-c5ccn(C6CC6)n5)cc4C3)c2c1` [Compound 65, 4-[3-(1-cyclopropylpyrazol-3-yl)-7,8-dihydro-5H-1,6-naphthyridin-6-yl]-6-fluoro-2-(trifluoromethyl)quinazoline], the Emax at 30 µM is 52% and the EC50 amounted to 1380 nM.

Regarding `Cn1cc(-c2cnc3c(c2)CN(c2nc(Cl)nc4cc(Cl)c(F)cc24)CC3)cn1` [Compound 62, 2,7-dichloro-6-fluoro-4-[3-(1-methylpyrazol-4-yl)-7,8-dihydro-5H-1,6-naphthyridin-6-yl]quinazoline], the Emax at 30 µM was 34% and the EC50 was determined as 410 nM.

Take `Cc1noc(C)c1-c1cnc2c(c1)CN(c1nc(Cl)nc3ccc(F)cc13)CC2` [Compound 29, 4-[6-(2-chloro-6-fluoro-quinazolin-4-yl)-7,8-dihydro-5H-1,6-naphthyridin-3-yl]-3,5-dimethyl-isoxazole]: the Emax at 30 µM is 97% and the 50% effective concentration (EC50) was 260 nM.

`Cc1cn(C)nc1-c1cnc2c(c1)CN(c1nc(C(F)(F)F)nc3ccc(F)cc13)CC2` [Compound 64, 4-[3-(1,4-dimethylpyrazol-3-yl)-7,8-dihydro-5H-1,6-naphthyridin-6-yl]-6-fluoro-2-(trifluoromethyl)quinazoline]: the Emax at 30 µM turned out to be 69% and the half-maximal effective concentration (EC50) was found to be 510 nM.

Take `Fc1ccc2ncnc(N3CCc4ncc(N5CCO[C@@H](c6ccccc6)C5)cc4C3)c2c1` [Compound 220, (S)-4-(6-(6-fluoroquinazolin-4-yl)-5,6,7,8-tetrahydro-1,6-naphthyridin-3-yl)-2-phenylmorpholine]: the Emax at 30 µM is 59% and the EC50 turned out to be 1950 nM.

For `Clc1ccc2nc(Cl)nc(N3CCc4ncc(N5CCCn6nccc65)cc4C3)c2c1` [Compound 89, 2,6-dichloro-4-[3-(6,7-dihydro-5H-pyrazolo[1,5-a]pyrimidin-4-yl)-7,8-dihydro-5H-1,6-naphthyridin-6-yl]quinazoline], the Emax at 30 µM is 109% and the 50% effective concentration (EC50) worked out at 250 nM.

Consider `C[C@H]1CCN(c2cnc3c(c2)CN(c2ncnc4ccc(F)cc24)CC3)c2ccnn21` [Compound 289, (S)-6-fluoro-4-(3-(7-methyl-6,7-dihydropyrazolo[1,5-a]pyrimidin-4(5H)-yl)-7,8-dihydro-1,6-naphthyridin-6(5H)-yl)quinazoline], for which the maximal effect (Emax) at 30 µM worked out at 72% and the EC50 was found to be 490 nM.

On to `Cn1nccc1Nc1cnc2c(c1)CN(c1nc(NCC(C)(C)O)nc3ccc(F)cc13)CC2` [Compound 212, 1-[[6-fluoro-4-[3-[(2-methylpyrazol-3-yl)amino]-7,8-dihydro-5H-1,6-naphthyridin-6-yl]quinazolin-2-yl]amino]-2-methyl-propan-2-ol], for which the Emax at 30 µM turned out to be 90% and the EC50 stood at 190 nM.

Regarding `C[C@@H]1CN(c2ncnc3ccc(F)cc23)Cc2cc(N3CCOCC3)cnc21` [Compound 259, (R)-4-(6-(6-fluoroquinazolin-4-yl)-8-methyl-5,6,7,8-tetrahydro-1,6-naphthyridin-3-yl)morpholine], the maximal response (Emax) at 30 µM was found to be 91% and the half-maximal effective concentration (EC50) came out at 200 nM.

Consider `Cc1ncc(-c2cnc3c(c2)CN(c2ncnc4cc(F)c(F)cc24)CC3)s1` [Compound 52, 5-[6-(6,7-difluoroquinazolin-4-yl)-7,8-dihydro-5H-1,6-naphthyridin-3-yl]-2-methyl-thiazole], for which the Emax at 30 µM came to 87% and the EC50 is 80 nM.

In the case of `Cc1nc2c(cc1N1CCOC(C)(C)C1)CN(c1ncnc3ccc(F)cc13)CC2` [Compound 219, 4-(6-(6-fluoroquinazolin-4-yl)-2-methyl-5,6,7,8-tetrahydro-1,6-naphthyridin-3-yl)-2,2-dimethylmorpholine], the Emax at 30 µM was determined as 60% and the concentration for a half-maximal effect (EC50) came out at 1370 nM.

Consider `Cc1cc2n(n1)CCCN2c1cnc2c(c1)CN(c1ncnc3ccc(F)cc13)CC2` [Compound 226, 6-fluoro-4-(3-(2-methyl-6,7-dihydropyrazolo[1,5-a]pyrimidin-4(5H)-yl)-7,8-dihydro-1,6-naphthyridin-6(5H)-yl)quinazoline], for which the Emax at 30 µM stood at 103% and the EC50 was found to be 60 nM.

On to `c1cnc2nc(NC3CCOC3)nc(N3CCc4ncc(N5CCCn6nccc65)cc4C3)c2c1` (stereo not shown) [Compound 245, 4-(3-(6,7-dihydropyrazolo[1,5-a]pyrimidin-4(5H)-yl)-7,8-dihydro-1,6-naphthyridin-6(5H)-yl)-N-(tetrahydrofuran-3-yl)pyrido[2,3-d]pyrimidin-2-amine], for which the Emax at 30 µM was determined as 80% and the EC50 was 220 nM.

`[2H]c1nc(N2CCc3ncc(C(F)(F)F)cc3C2)c2cc(F)ccc2n1` [Compound 190, 2-deuterio-6-fluoro-4-[3-(trifluoromethyl)-7,8-dihydro-5H-1,6-naphthyridin-6-yl]quinazoline]: the Emax at 30 µM worked out at 91% and the EC50 came out at 60 nM.

For `Cc1ccc2nc(C)nc(N3CCc4ncc(N5CCCn6nccc65)cc4C3)c2c1` [Compound 100, 4-[3-(6,7-dihydro-5H-pyrazolo[1,5-a]pyrimidin-4-yl)-7,8-dihydro-5H-1,6-naphthyridin-6-yl]-2,6-dimethyl-quinazoline], the Emax at 30 µM turned out to be 101% and the EC50 worked out at 60 nM.

Consider `CN1CCN(c2cnc3c(c2)CN(c2ncnc4ccc(F)cc24)CC3)CC1=O` [Compound 272, 4-(6-(6-fluoroquinazolin-4-yl)-5,6,7,8-tetrahydro-1,6-naphthyridin-3-yl)-1-methylpiperazin-2-one], for which the maximal effect (Emax) at 30 µM stood at 92% and the half-maximal effective concentration (EC50) is 1150 nM.

Regarding `Clc1ccc2ncnc(N3CCc4ncc(-c5ccc(C6CC6)nc5)cc4C3)c2c1` [Compound 42, 6-chloro-4-[3-(6-cyclopropyl-3-pyridyl)-7,8-dihydro-5H-1,6-naphthyridin-6-yl]quinazoline], the Emax at 30 µM came to 72% and the concentration giving a half-maximal response (EC50) was determined as 380 nM.

As for `CC1(C)CN(c2cnc3c(c2)CN(c2ncnc4cc(F)c(F)cc24)CC3)CCO1` [Compound 242, 4-(6-(6,7-difluoroquinazolin-4-yl)-5,6,7,8-tetrahydro-1,6-naphthyridin-3-yl)-2,2-dimethylmorpholine], the Emax at 30 µM was 90% and the 50% effective concentration (EC50) came out at 30 nM.

For `Cc1ccc2nc(Cl)nc(N3CCc4ncc(C(F)(F)F)cc4C3)c2c1` [Compound 119, 2-chloro-6-methyl-4-[3-(trifluoromethyl)-7,8-dihydro-5H-1,6-naphthyridin-6-yl]quinazoline], the Emax at 30 µM is 95% and the concentration for a half-maximal effect (EC50) stood at 110 nM.

For the origin of these results see patent publication US20250026752A1, “POSITIVE ALLOSTERIC MODULATORS OF THE MUSCARINIC ACETYLCHOLINE RECEPTOR M4” (Vanderbilt University, priority 2021, published 2025).
